The assay concerns the target T1, human plasmin (Homo sapiens, UniProt P00747).
T1 construct: precursors of plasmin, such as plasminogen
Description: indirect enzymatic determination: release of pNA from chromogenic substrate S-2251 by plasmin in the presence of defibrotide. Format: biochemical. On the procedure: 150 μl of each of the standard defibrotide solutions described above are taken and introduced into the wells of the microplates.
The plasmin solution is then prepared rapidly by adding, at 0° C., 3.8 ml of TRIS-HCl buffer to the test tube containing 0.2 ml of human plasmin solution. The whole is agitated gently until dissolution has occurred, and 50 μl are taken and introduced into the wells of the microplate, followed by 50 μl of S-2251 for each well.
The microplate, placed in the MRX TCII reader set at 37° C., is agitated for approximately 10 seconds; the absorbance readings are carried out at 405 nm, at the initial time t0 and subsequently every two minutes in the interval from 10 to 20 minutes, in accordance with the enzymatic kinetics program.
The microplate, placed in the MRX TCII reader set at 37° C., is agitated for approximately 10 seconds; the absorbance readings are taken at 405 nm, at the initial time t0 and subsequently every 5 minutes for a period from the 20th to the 50th minute, in accordance with the enzymatic kinetics program.
The absorbance values measured are then processed (Excel and Sigma Plot programs), tabulated and represented in a graph (regression lines).
In addition, considering the data reported in Table 1, 2 and 3, we have also calculated the μM/min of p-Nitroaniline released by plasmin acting on the chromogenic substrate in the presence of Defibrotide.
The “b” values reported in Tables 1, 2 and 3, namely the slopes of the kinetics curves, represent the ΔAbs/min×1000 (usually, just to avoid numbers with commas, the scale for the spectrophotometric readings in FIGS. 3, 4 and 5 was multiplied by 1000; as a consequence, the real spectrophotometric absorbance reading is obtained dividing “b” by 1,000).
Knowing from the literature, the Molar Extinction Coefficient for p-Nitroaniline (8,270 M^−1cm^−1, corresponding to 0.008270 Unit of Absorbance per μM of p-Nitroaniline) it follows that: 1μM p-Nitroaniline: 0.008270 (Absorbance)=X μM p-Nitroaniline: Spectrophotometric Reading (“b”/1000)
In this way we have calculated the micromoles of p-Nitroaniline released in the previous experiments, whose value are reported in table 4.

[1] abbreviates: Mean±Standard Deviation of 5 replications, X = concentration of defibrotide (μg/ml).
Setting [2] is: Replication 2, X = concentration of defibrotide (μg/ml).
Setting [3] is: Replication 3, X = concentration of defibrotide (μg/ml).
[4] abbreviates: Replication 4, X = concentration of defibrotide (μg/ml).
Where [5] appears, read: Replication 5, X = concentration of defibrotide (μg/ml).

T1 sequence (P00747 97-580 limits assumed): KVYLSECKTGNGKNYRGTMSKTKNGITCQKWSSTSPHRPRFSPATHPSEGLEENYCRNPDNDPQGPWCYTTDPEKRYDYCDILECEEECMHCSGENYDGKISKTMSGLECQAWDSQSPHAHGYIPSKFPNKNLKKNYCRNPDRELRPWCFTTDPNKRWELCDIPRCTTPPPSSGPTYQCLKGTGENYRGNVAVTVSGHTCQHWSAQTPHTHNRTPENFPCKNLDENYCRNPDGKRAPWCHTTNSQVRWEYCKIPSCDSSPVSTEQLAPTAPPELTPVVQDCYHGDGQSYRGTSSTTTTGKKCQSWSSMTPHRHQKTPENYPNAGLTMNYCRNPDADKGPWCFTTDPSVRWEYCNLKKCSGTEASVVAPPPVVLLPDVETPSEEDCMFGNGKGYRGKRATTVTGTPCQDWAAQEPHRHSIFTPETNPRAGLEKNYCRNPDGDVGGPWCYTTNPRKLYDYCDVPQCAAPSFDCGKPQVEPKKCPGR
T1 sequence (P00747 581-810 limits assumed): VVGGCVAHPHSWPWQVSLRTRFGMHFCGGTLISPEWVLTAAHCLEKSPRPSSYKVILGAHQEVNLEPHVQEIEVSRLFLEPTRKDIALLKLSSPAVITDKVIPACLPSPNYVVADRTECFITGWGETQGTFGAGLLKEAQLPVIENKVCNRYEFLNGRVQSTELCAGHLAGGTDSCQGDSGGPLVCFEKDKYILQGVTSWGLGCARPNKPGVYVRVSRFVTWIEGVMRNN

For Defibrotide, the “a of pNA(μM/min)=a+blog X” value under setting [1] stood at 0.6908±0.0291 μM/min. The “b of pNA(μM/min)=a+blog X” value under setting [1] was 0.3140±0.0437. Also, the “slope b of regression μM/min p-Nitroaniline = a + b log X” value reads like this: (Replication 1, X = concentration of defibrotide (μg/ml)) 0.3820; under setting [2], 0.2907; under setting [3], 0.2741; under setting [4], 0.2907; under setting [5], 0.3323. Also, the “intercept a of regression μM/min p-Nitroaniline = a + b log X” value runs as follows: (Replication 1, X = concentration of defibrotide (μg/ml), 37° C., 405 nm) 0.7317 μM/min; under setting [2], 0.6625 μM/min; under setting [3], 0.6708 μM/min; under setting [4], 0.6792 μM/min; under setting [5], 0.7100 μM/min. Besides, where the note is “plasmin-evaluation tests with substrate A1-A2-A3-X”, the “effect on rate of release of compound X (pNA) by plasmin from its substrate” value is given as “increases the rate of release of compound X proportionally to its concentration”.
